Experimental data taken from EP0500785B1, “A HUMAN T CELL REACTIVE FELINE PROTEIN (TRFP) ISOLATED FROM HOUSE DUST AND USES THEREFOR” (IMMULOGIC PHARMACEUTICAL CORPORATION, priority 1989, dated 2002).

Experiments:
Format in all cases: cell-based, human
[1] = tested on: Patient 155 TRFP secondary primed T cells; assay: Induction of T cell anergy/tolerance in vitro, followed by proliferation assay on antigenic challenge
Procedure: The T cell cultures were exposed to 5µg/ml TRFP on day 0 and 5µg/ml, 10µg/ml, 10µg/ml and 20µg/ml thereafter. The peptide treated cultures were exposed to 1µg/ml peptide on day 0 and 1µg/ml, 1µg/ml, 2µg/ml and 5µg/ml thereafter. In addition, 0.5ml of fresh media was replaced on day 2. The cells were then washed and set up for a proliferation assay with 2x10^4 T cells and 2x10^4 irradiated (2500 Rad) autologous EBV and various doses of antigen. T cell proliferation was measured as incorporation of tritiated thymidine at day 9. […]

[2] = tested on: TRFP primed T cell cultures; assay: T cell proliferation assay (tritiated thymidine incorporation) of TRFP-primed T cells restimulated with allergens or peptides; conditions: for T cell stimulatory activity: summarising Tables 2 and 3
Procedure: Peripheral blood mononuclear cells (PBMC) were purified from 60 ml of heparinized blood from cat allergic patients. PBMC were subsequently treated as described below, although in individual cases, the length of time of cultivation with IL-2 and/or IL-4 and the specific peptides used for stimulation varied.
10 ml of PBMC from patient 131 at 10^6/ml were cultured at 37°C for 7 days in the presence of 5 micrograms purified TRFP/ml RPMI-1640 supplemented with 5% pooled human AB serum. Viable cells were purified by Ficoll-Hypaque centrifugation and cultured for three weeks at 5 units recombinant human IL-2/ml and 5 units recombinant human IL-4/ml. The resting T cells were then restimulated (secondary) with 5 micrograms TRFP at 2 x 10^5/ml in the presence of irradiated (3500 Rads) autologous PBMC at a concentration of 5 x 10^5/ml for three days, purified by Ficoll-Hypaque centrifugation and grown in 5 units IL-2 and 5 units IL-4/ml for two weeks. For assay, 2 x 10^4 resting secondary T cells were restimulated (tertiary) in the presence of 5 x 10^4 irradiated (3500 Rads) autologous PBMC or 2 x 10^4 transformed B cells (20,000 Rads) with various concentrations of allergens or their fragments in a volume of 200 microliters in a 96-well round bottom assay plates for 3 days. Each well then received 1 microCurie tritiated (methyl) thymidine for 16 hours. The counts incorporated were collected onto glass fiber filters and processed for liquid scintillation counting.
Antigens used: T cell reactive feline protein (TRFP), Hollister-Stier cat epithelium skin test reagent (CST), IPC ragweed pollen extract (pollen), and synthetic peptides derived from the TRFP protein sequence (See Figures 6 and 7). Significant T cell proliferation is generally regarded as greater than 2.5 times the media control (T cells and antigen presenting cells alone).
Alternatively, PBMC were treated as follows: the primary stimulated cells were cultured in IL-2/IL-4 for two weeks. The resting T cells derived from this culture were tested in a secondary assay with some, but not all, of the above allergens. […] This type of epitope analysis has allowed the definition of T cell epitopes present in TRFP.

[3] = tested on: Peripheral blood mononuclear cells (PBMC); assay: Cytokine profiles (IL-2, IFN-γ, IL-4 cDNA) by PCR in a primary 36 hour PBMC culture; set-up: key to STIMULATION INDEX IL-2 / STIMULATION INDEX IFN-γ / STIMULATION INDEX IL-4: fold over medium control; undetectable control set to 1.00; conditions: Patient 409 primary 36 hour culture; for STIMULATION INDEX IL-2 / STIMULATION INDEX IFN-γ / STIMULATION INDEX IL-4: 20 micrograms TRFP/ml or 50 micrograms peptide/ml; for STIMULATION INDEX IL-2: medium not detectable, lowest measurable response set at 1.00; for STIMULATION INDEX IFN-γ / STIMULATION INDEX IL-4: relative to medium control; for RATIO IFN/IL-4 / RATIO IL-2/IL-4: ratio of stimulation indices
Procedure: Peripheral blood mononuclear cells (PBMC) were purified from cat-allergic patients as described in Example 5. Five x 10^6 PBMC were cultured at 2 x 10^6/ml for 36 hours in the presence of medium only, 20 micrograms purified TRFP/ml or 50 micrograms peptide/ml. The cells were then washed two times with phosphate buffered saline (PBS, pH 7.2) and lysed with 2 ml […] guanidinium isothiocyanate, 0.5% Sarkosyl, 5 mM sodium citrate, 0.1 M 2-mercaptoethanol, pH 7.0. The lysate was then forced through a 26 gauge needle to shear genomic DNA, and was layered onto a 2 ml cushion of 5.7 M CsCl, 0.01 M EDTA, pH 7.5 in diethylpyrocarbonate (DEPC)-treated water. The lysate was centrifuged at 35,000 RPM in a Beckman SW41 rotor for 18 hours at 20°C. The RNA pellet was resuspended in 0.4 ml TE (10 mM Tris, 1 mM EDTA) pH 7.5, 0.1% SDS, and then extracted three times with 0.5 ml phenol/0.2 ml chloroform. The RNA was then precipitated on dry ice with 2.5 volumes ice-cold ethanol, 1/10 volume 3 M sodium acetate, pH 5.2 in DEPC-treated water, rinsed once with 70% ethanol in DEPC-treated water, and dried. The RNA pellet was resuspended in 2 microliters TE, pH 7.5 in DEPC-treated water.
Total cellular RNA was converted to cDNA using the Superscript kit (BRL, Bethesda, MD). Two microliters of RNA were added to one microliter oligo (dT)12-18 (500 micrograms/ml) and 9 microliters water. The sample was heated to 70°C for 10 minutes and ice quenched. Four microliters 5X buffer were added to the sample along with 2 microliters 0.1 M DTT and 1 microliter dNTP mix (10 mM each, dATP, dCTP, dGTP, dTTP). One microliter reverse transcriptase (200U) was added and the reaction was carried out for one hour at 42°C. The reaction was terminated by incubation of the sample at 90°C for five minutes and stored at -80°C.
Ten-fold serial dilutions of T cell cDNA in 10 mM TRIS, pH 7.5 were amplified using the standard kit and protocol recommended by Perkin Elmer-Cetus (Redwood City, CA). Each sample received 26.65 microliters water, 5 microliters 10X PCR buffer, 8 microliters of dNTP mix (1.25 mM each of dATP, dCTP, dGTP and dTTP), 0.1 microliter alpha ^32P-dCTP (3000 Ci/mmol), 0.25 microliter AmpliTaq, 5 microliters cDNA and 5 microliters cytokine-specific 5' and 3' primers (20 micromolar). The primers used for most cytokines and the beta-actin control were purchased from Clontech (Redwood City, CA). The human IL-4 primers were purchased from Research Genetics (Huntsville, AL) and had the following sequences: [formula]
The reactions were carried out after overlaying each sample with one drop of mineral oil, with the following program in a programmable thermal cycler (MJ Research, Cambridge, MA).
The PCR products were extracted once with 25 microliters chloroform and 25 microliters of each sample were then electrophoresed on an 8% polyacrylamide gel at 250 V. The gel was dried and exposed to pre-flashed x-ray film. Several exposures of each gel were then scanned using a Shimadzu flying spot laser densitometer. Values on the linear portion of the titrations were then compared to the medium control values to obtain a stimulation index for each sample. Primers for beta-actin were included as a control for general cDNA levels in each sample. Where the medium control values are not detectable, the lowest measurable response was set at 1.00. In other experiments, levels of cytokine cDNA can be compared directly with previously amplified cytokine-specific cDNAs as standards. Thus, absolute levels of particular cytokine cDNAs can be compared from one sample to another and from one experiment to another. In this experiment, IL-2, IL-4 and IFN-gamma levels were measured. […] This analysis will be expanded to studies of other cytokines involved in the generation of allergic responses, such as IL-5, IL-8, IL-9, TGF-beta. Samples of cDNA from each treatment can also be saved for later analysis once additional cytokines are identified and sequenced. […]

[4] = Chain #1 TRFP peptides, average cpm with antigen divided by cpm of T cells and antigen presenting cells alone, responding patients, SI ≥ 2.5 positive
[5] = Chain #1 TRFP peptides, cat allergic patients, average SI of all responding patients multiplied by percent of patients with a positive response
[6] = Chain #2 TRFP peptides, cat allergic patients, average SI of responding patients multiplied by percent positive
[7] = Chain #2 TRFP peptides, cat allergic patients, average of responding patients

Fel 8-3: TRFP chain 1 peptide, amino acids 7 - 33 (KRDVDLFLTGTPDEYVEQVAQYKALPV; UniProt P30438 29-55, looked up, fragment)
T cell proliferation (cpm) following Antigenic challenge: Fel 8-3 ([1]; label = tolerance treatment over 5 days, challenge with Fel 8-3): 3,850 cpm | T cell proliferation (cpm) following Antigenic challenge: Ragweed Peptide ([1]; label = tolerance treatment over 5 days, challenge with Ragweed Peptide): 5,130 cpm | T cell proliferation (cpm) following Antigenic challenge: TRFP ([1]; label = tolerance treatment over 5 days, challenge with TRFP): 12,320 cpm | T cell proliferation (cpm) following Antigenic challenge: - ([1]; label = tolerance treatment over 5 days, no challenge antigen): 1,270 cpm | T cell proliferation (cpm) following Antigenic challenge ([1]; no tolerance treatment (-), label = challenge antigen): 58,150 cpm | SI [2, 4]: 16.9 | PI [2, 5]: 1437 | T cell stimulatory activity ([2]; result in words): powerful activity

Fel 8: TRFP chain 1 peptide, amino acids 1 - 30 (EICPAVKRDVDLFLTGTPDEYVEQVAQYKA; UniProt P30438 23-52, looked up, fragment)
SI [2, 4]: 18.1 | PI [2, 5]: 1393 | secondary T cell response of peripheral blood lymphocytes ([2]; patient 131, Figure 9, result in words): respond | T cell stimulatory activity ([2]; result in words): most dominant T-cell epitopes | STIMULATION INDEX IL-2 [3]: 1.0 | STIMULATION INDEX IFN-γ [3]: 1.8 | STIMULATION INDEX IL-4 [3]: 0.3 | RATIO IFN/IL-4 [3]: 6.0 | RATIO IL-2/IL-4 [3]: 3.3

Fel 14: TRFP chain 1 peptide, amino acids 18 - 43 (PDEYVEQVAQYKALPVVLENARILKN; UniProt P30438 40-65, looked up, fragment)
SI [2, 4]: 13.7 | PI [2, 5]: 1054 | T cell stimulatory activity ([2]; result in words): powerful activity | STIMULATION INDEX IL-2 [3]: 106.9 | STIMULATION INDEX IFN-γ [3]: 75.0 | STIMULATION INDEX IL-4 [3]: 1.9 | RATIO IFN/IL-4 [3]: 39.5 | RATIO IL-2/IL-4 [3]: 56.3

Fel 17: TRFP chain 2 peptide, amino acids 12 - 33 (DVFFAVANGNELLLDLSLTKVN; UniProt P30440 29-50, looked up, fragment)
PI [2, 6]: 421 | SI [2, 7]: 6.1 | STIMULATION INDEX IL-2 [3]: 315.1 | STIMULATION INDEX IFN-γ [3]: 82.4 | STIMULATION INDEX IL-4 [3]: 7.5 | RATIO IFN/IL-4 [3]: 11.0 | RATIO IL-2/IL-4 [3]: 42.0

Fel 20-1: TRFP chain 2 peptide, amino acids 34 - 59 (ATEPERTAMKKIQDCYVENGLISRVL; UniProt P30440 51-76, looked up, fragment)
PI [2, 6]: 395 | SI [2, 7]: 5.9 | STIMULATION INDEX IFN-γ [3]: 12.0 | STIMULATION INDEX IL-4 [3]: 4.6 | RATIO IFN/IL-4 [3]: 2.6

Fel 25: TRFP chain 2 peptide, amino acids 49 - 68 (YVENGLISRVLDGLVMTTIS; UniProt P30440 66-85, looked up, fragment)
PI [2, 6]: 350 | SI [2, 7]: 7.6 | STIMULATION INDEX IL-2 [3]: 2.9 | STIMULATION INDEX IFN-γ [3]: 12.7 | STIMULATION INDEX IL-4 [3]: 2.5 | RATIO IFN/IL-4 [3]: 5.1 | RATIO IL-2/IL-4 [3]: 1.2

Fel 28: TRFP chain 2 peptide, amino acids 60 - 82 (DGLVMTTISSSKDCMGEAVQNTV; UniProt P30440 77-99, looked up, fragment)
PI [2, 6]: 94 | SI [2, 7]: 3.6 | T cell stimulatory activity ([2]; result in words): weakest T cell epitope containing region of TRFP | STIMULATION INDEX IFN-γ [3]: 3.8 | STIMULATION INDEX IL-4 [3]: 0.5 | RATIO IFN/IL-4 [3]: 7.6

Fel 29: TRFP chain 2 peptide, amino acids 74 - 92 (MGEAVQNTVEDLKLNTLGR; UniProt P30440 91-109, looked up, fragment)
PI [2, 6]: 259 | SI [2, 7]: 5.5 | STIMULATION INDEX IL-2 [3]: 1.2 | STIMULATION INDEX IFN-γ [3]: 3.0 | STIMULATION INDEX IL-4 [3]: 1.1 | RATIO IFN/IL-4 [3]: 2.7 | RATIO IL-2/IL-4 [3]: 1.1
